Where two headings read alike, the source gives them in different places.
Key:
Dopamine D2 receptor = biological target: T1, Dopamine D2 receptor (Homo sapiens, UniProt P14416); assay: Dopamine D2 receptor binding assay ([125I]iodospiperone)
T1 construct: purchased Receptor Biology (now owned by NEN) RBHD2CM

[1] = biological target: T2, human Histamine-1 receptors (Homo sapiens, UniProt P35367); assay: 3H-Pyrilamine SPA binding to human Histamine-1 receptors; conditions: read-out: Receptor affinity (Ki, nM) H1
T2 construct: expressed in transfected cells
T2 sequence (P35367 whole entry): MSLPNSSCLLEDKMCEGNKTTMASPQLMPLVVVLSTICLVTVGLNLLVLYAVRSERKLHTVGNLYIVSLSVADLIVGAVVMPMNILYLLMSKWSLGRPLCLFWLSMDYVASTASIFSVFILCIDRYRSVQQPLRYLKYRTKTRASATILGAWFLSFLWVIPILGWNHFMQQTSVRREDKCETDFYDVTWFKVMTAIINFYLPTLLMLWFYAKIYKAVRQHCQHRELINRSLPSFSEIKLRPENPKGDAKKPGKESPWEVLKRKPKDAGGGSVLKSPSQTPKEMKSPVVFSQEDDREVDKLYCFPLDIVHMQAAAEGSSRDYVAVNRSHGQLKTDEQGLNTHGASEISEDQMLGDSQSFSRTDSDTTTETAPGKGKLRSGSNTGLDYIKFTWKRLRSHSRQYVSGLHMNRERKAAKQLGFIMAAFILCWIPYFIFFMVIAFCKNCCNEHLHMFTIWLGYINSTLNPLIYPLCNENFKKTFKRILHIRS
Procedure: Their ability of a compound to block histamine H1 receptors can be estimated in vitro by measuring the in vitro histamine H1 receptor affinity. […] The ratio of in vitro histamine H1 receptor affinity divided by the in vitro dopamine D2 receptor affinity, both expressed as Ki's, is an estimate of a compound's likelihood to cause weight gain at therapeutic levels. […] Incubations were performed in a total volume of 200 μl in 96 well assay plates. 50 μl ^3H-pyrilamine (NEN, 20 Ci/mmol, final concentration=3.0 nM) was added to 50 μl of test compounds dissolved in water (±DMSO and/or glacial acetic acid). 50 μl Wheat Germ Agglutinin (WGA) bead, at 1 mg/well, (Amersham Life Sciences) in assay buffer (67 mM TrisCl pH 7.4) were then added. Membrane homogenate from cells expressing human Histamine-1 receptors, approximately 700,000 cells/well, was added last. The plates were covered with sealing tape (FasCal) and allowed to incubate at room temperature for 2 hours. The plates were then centrifuged at approximately 200×g for 10 minutes at room temperature. The amount of ^3H-pyrilamine bound to the membranes, ie proximate to the WGA bead, was then determined using a Wallac MicroBeta Trilux Scintillation Counter (Wallac, Inc.).

dopamine D2 receptors = biological target: T3, dopamine D2 receptors (Rattus norvegicus, UniProt P61169); assay: DOPAC concentrations in rat nucleus accumbens (in vivo D2 receptor blockade); conditions: dose that increases DOPAC to 200% of control, 90 minutes after gavage
T3 construct: from tissue; host or cells: male Sprague Dawley rats, nucleus accumbens (in vivo)
T3 sequence (P61169 whole entry): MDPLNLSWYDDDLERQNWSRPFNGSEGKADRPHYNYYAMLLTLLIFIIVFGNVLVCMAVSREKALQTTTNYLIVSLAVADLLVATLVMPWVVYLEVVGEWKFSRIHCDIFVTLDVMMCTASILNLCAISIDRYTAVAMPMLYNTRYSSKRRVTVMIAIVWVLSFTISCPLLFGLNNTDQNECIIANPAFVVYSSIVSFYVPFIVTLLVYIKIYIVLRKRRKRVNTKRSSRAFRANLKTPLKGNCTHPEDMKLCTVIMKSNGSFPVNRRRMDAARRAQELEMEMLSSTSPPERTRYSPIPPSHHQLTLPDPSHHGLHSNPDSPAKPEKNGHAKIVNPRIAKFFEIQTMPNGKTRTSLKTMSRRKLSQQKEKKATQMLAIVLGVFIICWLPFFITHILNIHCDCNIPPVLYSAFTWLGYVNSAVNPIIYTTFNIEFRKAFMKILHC
Procedure: Antipsychotics are believed to exert at least part of their therapeutic effects through blockade of the dopamine D2 receptor. The ability of a compound to block dopamine D2 receptors in the rat in vivo was determined by measuring the effect of the compound on the level of DOPAC (3,4-dihydroxyphenylacetic acid), a metabolite of dopamine, in nucleus accumbeus of the rat. Dopamine D2 receptor antagonists increase the release of dopamine into the synapse due to blockade of the dopamine D2 autoreceptor. This increased release of dopamine cannot be directly measured, since the efficiency of the dopamine reuptake system prevents increases in synaptic dopamine concentrations. Instead, increases in the levels of the dopamine metabolites DOPAC (3,4-dihydroxyphenylacetic acid) and HVA (homovanillic acid) reflect increased neuronal dopaminergic activity in vivo.
(§1) Male Sprague Dawley rats (Harlan Sprague Dawley, Inc., Indianapolis, Ind.) weighing 110 grams were fasted overnight. […] All other compounds were administered at 5 ml/kg in dilute lactic acid. Tissues were dissected, frozen on dry ice and stored at −70° C. prior to analysis.
Rat nucleus accumbens DOPAC (3,4-dihydroxyphenylacetic acid) concentrations were measured using high-pressure liquid chromatography with electrochemical detection (HPLC-EC). Tissues were sonicated in 1 ml 0.1N TCA. After centrifugation, a 25 µl aliquot of supernatant was injected onto a BDS Hypersyl C18 column (150×4.6 mm, Keystone Scientific). The elution buffer contained 75 mM sodium phosphate monobasic, 0.5 mM EDTA, 350 mg/L 1-octanesulfonate sodium, 7% acetonitrile (v/v) and 0.7% tetrahydrofuran (v/v), pH 3.0. The flow rate was 1.2 ml/min at 40° C. Peak heights were measured at 750 mV at 10 nA sensitivity and compared with samples containing known amounts of DOPAC standards.

[2] = biological target: T4, hypothalamic histamine H1 receptors (Rattus norvegicus, UniProt P31390); assay: Histamine H1 ex vivo binding ([3H]-pyrilamine, rat hypothalamic homogenates); format: in vivo; conditions: rat hypothalamus; dose required to occupy 50% of histamine H1 receptors; 90 minutes after gavage
T4 construct: from tissue; host or cells: hypothalamus of male Sprague Dawley rats
T4 sequence (P31390 whole entry): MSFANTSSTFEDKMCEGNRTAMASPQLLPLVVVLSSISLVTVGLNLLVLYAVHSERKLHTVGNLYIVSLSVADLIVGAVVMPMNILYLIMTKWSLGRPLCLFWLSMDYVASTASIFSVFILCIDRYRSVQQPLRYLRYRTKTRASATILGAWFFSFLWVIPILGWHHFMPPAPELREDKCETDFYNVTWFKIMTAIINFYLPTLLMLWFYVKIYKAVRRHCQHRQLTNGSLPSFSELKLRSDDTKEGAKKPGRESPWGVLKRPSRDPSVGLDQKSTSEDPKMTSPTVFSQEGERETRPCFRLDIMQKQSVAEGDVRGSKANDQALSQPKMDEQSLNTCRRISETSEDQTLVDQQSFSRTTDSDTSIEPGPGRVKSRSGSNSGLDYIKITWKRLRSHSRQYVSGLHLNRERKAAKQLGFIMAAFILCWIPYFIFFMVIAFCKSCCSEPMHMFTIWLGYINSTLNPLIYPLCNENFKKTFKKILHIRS
Procedure: The in vivo potency of a compound to occupy hypothalamic histamine H1 receptors in the rat was determined using a histamine H1 ex vivo binding assay.
as §1
Ex vivo binding of the histamine H1 antagonist [^3H]-pyrilamine (NEN Life Science Products) to rat hypothalamic homogenates was determined. Tissues were homogenized in 600 μl incubation buffer (50 mM sodium phosphate monobasic, pH 7.4) and pre-incubated 10 minutes at 37° C. to remove endogenous histamine. Triplicate tubes, each containing 100 μl homogenate, were combined with 1 ml buffer containing 3 nM [^3H]-pyrilamine and incubated 30 minutes at 25° C. […] [^3H]-pyrilamine binding was measured after separation filtration using a Brandell cell harvester with GF/C filters which had been soaked in 0.1% polyethylenimine. ED50 values were determined using the Allfit statistical program for displacement binding.

T1 sequence (P14416 1-414 isoform P14416-2): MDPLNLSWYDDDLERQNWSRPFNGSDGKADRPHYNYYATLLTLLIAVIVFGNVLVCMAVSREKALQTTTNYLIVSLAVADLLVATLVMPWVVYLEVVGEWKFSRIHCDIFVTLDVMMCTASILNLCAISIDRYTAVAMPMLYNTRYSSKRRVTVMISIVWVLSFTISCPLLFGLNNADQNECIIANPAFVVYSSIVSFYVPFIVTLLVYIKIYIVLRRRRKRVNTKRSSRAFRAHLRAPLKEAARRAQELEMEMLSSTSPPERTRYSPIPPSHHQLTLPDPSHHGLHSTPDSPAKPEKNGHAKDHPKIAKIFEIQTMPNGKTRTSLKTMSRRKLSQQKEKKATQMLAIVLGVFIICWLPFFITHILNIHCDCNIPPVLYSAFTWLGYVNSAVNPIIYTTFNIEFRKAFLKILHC

COCC[C@H]1CN(C2=Nc3ccccc3Nc3sc(C(C)C)nc32)CCN1C.Cl.Cl [Example 327, (S)-10-[3-(2-Methoxyethyl)-4-methylpiperazin-1-yl]-2-isopropyl-4H-3-thia-1,4,9-triazabenzo[f]azulene dihydrochloride]
Ki (Dopamine D2 receptor; read-out: Receptor affinity (Ki, nM) D2): 9 nM | Ki (Dopamine D2 receptor; relative Ki scale of Table 5, read-out: Relative D2 Receptor Binding Affinity Ki): < 10 nM | Ki [1]: 91 nM | In vivo activity D2: DOPAC elevation (ED200) (dopamine D2 receptors): 4 mg/kg, po | In vivo activity H1: H1 ex vivo binding (ED50) [2]: >30 mg/kg, po

From patent publication US7384934B2, “Piperazine substituted aryl benzodiazepines” (Eli Lilly and Company, priority 2002, dated 2008)
